{"source": "patent US5540937A", "about": "“Process for preparing microspheres for the prolonged release of the LHRH hormone and its analogues, microspheres and formulations obtained” (Rhone Merieux, priority 1992, dated 1996)", "assay": "solubility of the peptide in the continuous phase", "assay_type": "physicochemical", "settings": "continuous aqueous phase (demineralized water containing 1% PVA)", "text": "Although the solubility of this peptide in water is high, high encapsulation yields are obtained."}
{"smiles": "CC(C)C[C@H](NC(=O)[C@@H](Cc1c[nH]c2ccccc12)NC(=O)[C@H](Cc1ccc(O)cc1)NC(=O)[C@H](CO)NC(=O)[C@H](Cc1c[nH]c2ccccc12)NC(=O)[C@H](Cc1c[nH]cn1)NC(=O)[C@@H]1CCC(=O)N1)C(=O)N[C@@H](CCCNC(=N)N)C(=O)N1CCC[C@H]1C(=O)NCC(N)=O", "note": "[[D-Trp^6]-LHRH]", "values": [{"measurement": "solubility in the continuous phase", "value": "about 45 mg/ml"}]}
